{"source": "patent US10507205B2", "about": "“Methods of treating opiate dependency and preventing non-oral opiate abuse among opiate addicts” (PURDUE PHARMACEUTICAL PRODUCTS L.P., priority 2006, dated 2019)", "origin": "cited, not measured here", "details": "pronounced first-pass metabolism, 'sometimes less than 5%'"}
{"smiles": "C=CCN1CCC23c4c5ccc(O)c4OC2C(=O)CCC3(O)C1C5", "note": "(stereo not shown) [naloxone, Naloxone]", "values": [{"measurement": "bioavailability of orally administered naloxone", "value": "less than 5%"}]}
